Measurements reported in ChEMBL document CHEMBL1133251, “Synthesis and biological evaluation of 1-azabicyclo-[3.2.1]octanes: new dopamine transporter inhibitors” (Bioorg Med Chem Lett, 2000).

How the values were obtained:
[1] = molecular target: Norepinephrine transporter (Rattus norvegicus, UniProt Q9WTR4); experiment: Inhibition of [3H]NE binding to norepinephrine transporter of rat brain synaptosomes; type: subcellular
[2] = molecular target: Sodium-dependent serotonin transporter (Rattus norvegicus, UniProt P31652); experiment: Inhibition of [3H]-5-HT binding to serotonin transporter of rat brain synaptosomes; type: subcellular
Sequence of Sodium-dependent serotonin transporter (P31652 whole entry): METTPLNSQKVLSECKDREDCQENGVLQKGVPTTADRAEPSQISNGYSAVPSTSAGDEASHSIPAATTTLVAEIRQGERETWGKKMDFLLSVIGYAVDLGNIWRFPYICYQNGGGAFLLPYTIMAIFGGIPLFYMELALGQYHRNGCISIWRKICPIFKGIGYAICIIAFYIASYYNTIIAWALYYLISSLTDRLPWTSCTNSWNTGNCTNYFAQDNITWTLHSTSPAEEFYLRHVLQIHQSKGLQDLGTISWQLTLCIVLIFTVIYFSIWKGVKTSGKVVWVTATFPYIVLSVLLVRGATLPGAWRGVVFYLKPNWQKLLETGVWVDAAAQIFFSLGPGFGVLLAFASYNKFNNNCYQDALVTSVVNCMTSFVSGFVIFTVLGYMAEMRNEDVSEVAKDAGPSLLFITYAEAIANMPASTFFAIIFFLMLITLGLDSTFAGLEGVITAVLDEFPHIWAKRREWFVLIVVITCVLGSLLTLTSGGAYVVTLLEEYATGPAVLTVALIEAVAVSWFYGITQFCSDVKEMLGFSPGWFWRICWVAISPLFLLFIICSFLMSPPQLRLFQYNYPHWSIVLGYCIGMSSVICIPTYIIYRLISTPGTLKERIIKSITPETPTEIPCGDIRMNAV

[3] = molecular target: T1, Sodium-dependent dopamine transporter (Rattus norvegicus, UniProt P23977); experiment: Inhibition of [3H]DA binding to dopamine transporter of rat brain synaptosomes; type: subcellular
T1 sequence (P23977 whole entry): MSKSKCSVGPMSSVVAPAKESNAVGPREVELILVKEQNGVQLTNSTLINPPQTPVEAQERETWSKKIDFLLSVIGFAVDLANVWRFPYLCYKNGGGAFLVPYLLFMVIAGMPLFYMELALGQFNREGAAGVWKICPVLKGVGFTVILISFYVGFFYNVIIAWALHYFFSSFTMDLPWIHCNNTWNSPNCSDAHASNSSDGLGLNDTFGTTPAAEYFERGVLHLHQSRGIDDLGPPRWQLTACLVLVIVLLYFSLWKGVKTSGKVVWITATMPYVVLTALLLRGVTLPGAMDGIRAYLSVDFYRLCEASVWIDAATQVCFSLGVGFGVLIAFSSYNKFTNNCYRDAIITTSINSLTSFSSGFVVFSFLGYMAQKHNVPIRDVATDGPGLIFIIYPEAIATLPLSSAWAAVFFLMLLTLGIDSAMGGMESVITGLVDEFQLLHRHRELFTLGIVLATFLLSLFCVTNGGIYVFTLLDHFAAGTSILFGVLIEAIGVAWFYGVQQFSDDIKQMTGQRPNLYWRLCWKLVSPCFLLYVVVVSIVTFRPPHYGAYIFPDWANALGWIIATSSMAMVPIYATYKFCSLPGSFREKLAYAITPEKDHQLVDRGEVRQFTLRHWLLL

[4] = molecular target: T1, Sodium-dependent dopamine transporter; experiment: Inhibition of [3H]- Mazindol binding to dopamine transporter of rat striatal membrane.

Sequence of Norepinephrine transporter (Q9WTR4 whole entry): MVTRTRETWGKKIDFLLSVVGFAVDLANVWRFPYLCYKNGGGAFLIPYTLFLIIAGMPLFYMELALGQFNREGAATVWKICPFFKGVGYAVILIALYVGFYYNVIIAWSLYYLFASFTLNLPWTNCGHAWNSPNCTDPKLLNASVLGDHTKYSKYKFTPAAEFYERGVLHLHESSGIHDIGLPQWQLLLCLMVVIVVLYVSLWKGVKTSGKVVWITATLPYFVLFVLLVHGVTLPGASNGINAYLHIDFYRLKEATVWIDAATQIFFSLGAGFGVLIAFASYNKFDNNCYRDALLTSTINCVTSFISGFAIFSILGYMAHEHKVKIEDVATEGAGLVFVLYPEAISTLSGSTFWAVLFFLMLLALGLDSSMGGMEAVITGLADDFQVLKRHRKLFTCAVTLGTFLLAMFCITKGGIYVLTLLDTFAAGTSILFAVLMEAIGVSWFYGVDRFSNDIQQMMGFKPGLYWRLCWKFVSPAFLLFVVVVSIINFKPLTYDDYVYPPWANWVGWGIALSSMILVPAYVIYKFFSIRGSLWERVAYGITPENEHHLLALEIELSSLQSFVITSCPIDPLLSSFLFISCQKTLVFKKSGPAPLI

Row | Structure (SMILES) | Ki [1] [nM] | Ki [2] [nM] | Ki [3] [nM] | Ki [4] [nM]
1 | CN1CCC(c2ccc(Cl)cc2)C(C(=O)OCCCc2ccccc2)C1 (single isomer, unassigned; (+)) | 72 | 2160 | 1420 | 1490
2 | CN1CCC(c2ccc(Cl)cc2)C(C(=O)OCCC(c2ccccc2)c2ccccc2)C1 (single isomer, unassigned; (+)) | 3140 | 2590 | 1160 | 420
3 | COC(=O)C1CN(C)CCC1c1ccc(Cl)cc1 (single isomer, unassigned; (+)) | 90 | 5880 | 228 | 248
4 | CO/N=C1/CN2CC[C@H](c3ccc(Cl)cc3)C1C2 (some centres undefined) | 240 | 856 | – | –
5 | Clc1ccc([C@@H]2CCN3C/C(=N\OCCCc4ccccc4)C2C3)cc1 (some centres undefined) | 483 | 292 | 41 | 53
6 | CN1CCC(c2ccc(Cl)cc2)C(C(=O)OCCCCCc2ccccc2)C1 (single isomer, unassigned; (+)) | 382 | 1790 | 53 | 52
7 | CO/N=C1\CN2CC[C@@H](c3ccc(Cl)cc3)C1C2 (stereo in doubt; (-)-7) | 652 | 2530 | – | –
8 | Clc1ccc([C@@H]2CCN3C/C(=N\OCc4ccccc4)C2C3)cc1 (some centres undefined) | 1550 | 117 | 1860 | –
9 | CO/N=C1\CN2CC[C@@H](c3ccc(Cl)cc3)C1C2 (single isomer, unassigned; (+)) | > 4000 | 1790 | – | –
10 | CO/N=C1\CN2CC[C@H](c3ccc(Cl)cc3)C1C2 (stereo in doubt; (-)-6) | 305 | 503 | – | –
11 | CO/N=C1/CN2CC[C@@H](c3ccc(Cl)cc3)C1C2 (some centres undefined) | 232 | > 2000 | – | –
12 | CC(C)(C)O/N=C1\CN2CC[C@@H](c3ccc(Cl)cc3)C1C2 (some centres undefined) | 287 | 137 | 725 | 641
13 | CO/N=C1\CN2CC[C@H](c3ccc(Cl)cc3)C1C2 (stereo in doubt; (+)-7) | 871 | 2640 | – | –
